Assay results taken from US11345912B2, “Directed evolution of multivalent glycopeptides that tightly bind to target proteins” (Brandeis University, priority 2013, dated 2022).
*1 amine or outer side, *2 acyl side, *3 side chain or, on linkers, in order; H or OH if unused. [ ]: non-standard residue; d: D form. The star is where a group is joined. X1 = O=C([C@H](CCc1cn(C2CCC(OC3O[C@H](CO[C@H]4O[C@H](CO[C@H]5O[C@H](CO)[C@@H](O)[C@H](O)[C@@H]5O[C@H]5O[C@H](CO)[C@@H](O)[C@H](O)[C@@H]5O)[C@@H](O)[C@H](O[C@H]5O[C@H](CO)[C@@H](O)[C@H](O)[C@@H]5O[C@H]5O[C@H](CO)[C@@H](O)[C@H](O)[C@@H]5O)[C@@H]4O)[C@@H](O)[C@H](O[C@H]4O[C@H](CO)[C@@H](O)[C@H](O)[C@@H]4O[C@H]4O[C@H](CO)[C@@H](O)[C@H](O)[C@@H]4O[C@H]4O[C@H](CO)[C@@H](O)[C@H](O)[C@@H]4O)[C@@H]3O)CC2)nn1)N[*:1])[*:2]; For = O=C*

Tested on: 2G12
Assay: Binding curve and KD determination of 2G12-glycopeptide interaction (radiolabeled glycopeptide, protein G magnetic bead capture, scintillation counting)
Procedure: The resulting mRNAs were purified by denaturing PAGE or MEGAclear kit (Ambion), and 1 μM RNA was used in PURE system translation (reaction volume of translation varied). Typically, 25 μL of translated reaction was diluted with 100 μL of binding buffer (50 mM Tris-HCl, pH 7.8, 300 mM NaCl, 5 mM β-mercaptoethanol) and 25 μL of Ni-NTA agarose suspension (Qiagen), and tumbled at room temperature for 1 h. The resins were transferred to 0.22 μm spin-filter rinsing with 100 μL of bind buffer, and washed with 3×200 μL of bind buffer and 2×200 μL of wash buffer (50 mM Tris-HCl, pH 7.8, 5 mM β-mercaptoethanol). The bound peptides were eluted with 2×25 μL of 0.1% TFA. The eluted peptides were analyzed by MALDI-TOF MS, using α-Cyano-4-hydroxycinnamic acid matrix (Sigma), with or without desalting with ZipTip C18 resin (Millipore). For calibration of MALDI-TOF-MS, at least two of the following standards, bovine insulin, E. coli thioredoxin and/or horse apomyoglobin were used. To quantitate peptide yields, the radioactivities were measured by liquid scintillation counting. For the click reaction, the translated and purified peptides were mixed with 0.1% (v/v) Triton X-100, and then dialyzed against H2O containing 0.1% (v/v) Triton X-100 using Slide-A-Lyzer MINI Dialysis Devices, 3.5K MWCO (Thermo Scientific) overnight to desalt. After dialysis, the peptides were divided into two portions: one was glycosylated via the click reaction, while the other was saved as a non-glycosylated peptide control. […] The glycosylated peptide (<4 pmol) was incubated with 100 nM 2G12 in selection buffer (40 μL) at room temp. The solution was then tumbled 30 min with 0.12 mg of equilibrated Dynabeads Protein G to capture 2G12-glycopeptide complex. Beads were then washed with 3×40 μL of selection buffer and resuspended in 10 μL of selection buffer. The resuspended beads were heated at 70° C. for 30 min to denature 2G12 and elute glycopeptides, chilled on ice for 5 min, and tumbled at room temperature for 10 min. The magnetically isolated supernatant was recovered and the beads were rinsed with 10 μL of selection buffer.
Then, the solution was added to 0.12 mg of pre-equilibrated Dynabeads Protein G and tumbled at room temperature for 30 min. The supernatant was removed and the beads were washed with 3×40 μL of selection buffer. The radioactivities of the supernatant and wash solutions were measured by liquid scintillation counting as unbound fractions. […] The beads were resuspended in 40 μL of selection buffer, heated at 70° C. for 30 min to elute the bound glycopeptides, chilled on ice for 5 min, and tumbled at room temperature for 10 min. The supernatant was removed, and the beads were washed with 40 μL of selection buffer and resuspended in 40 μL of selection buffer. The radioactivities of these solutions and suspensions were measured by liquid scintillation counting separately and the values were combined as apparent bound fractions. […] All experiments were done at least in triplicate. KDs were calculated as described in the footnote of Table 4 (below).

[1] = Table 6 mutational analysis, radioactive bead binding assay
[2] = Table 6 mutational analysis, radioactive bead binding assay, ribosomally translated
[3] = Table 4, maximal fraction bound from curve fit, error = standard error of fit

Row | Molecule | Fmax [%] [1] | Kd [2] | Fmax [%] [3] | tolerance of Cys substitutions for 2G12 binding (in words) (Cys to Ser mutants, Table 6) | Kd (Table 4, ribosomally translated radiolabeled glycopeptide with His6/FLAG tag, room temperature, fit Fbound=(Fmax[2G12])/(KD+[2G12]), error = standard error of fit)
1 | CC[C@H](C)[C@H](NC(=O)[C@H](CCCNC(=N)N)NC(=O)[C@H](CCCNC(=N)N)NC(=O)CNC(=O)[C@H](CC(=O)O)NC(=O)[C@H](CC(N)=O)NC(=O)[C@H](CC(C)C)NC(=O)[C@@H](NC(=O)[C@H](CCc1cn(C2CCC(OC3O[C@H](CO[C@H]4O[C@H](CO[C@H]5O[C@H](CO)[C@@H](O)[C@H](O)[C@@H]5O[C@H]5O[C@H](CO)[C@@H](O)[C@H](O)[C@@H]5O)[C@@H](O)[C@H](O[C@H]5O[C@H](CO)[C@@H](O)[C@H](O)[C@@H]5O[C@H]5O[C@H](CO)[C@@H](O)[C@H](O)[C@@H]5O)[C@@H]4O)[C@@H](O)[C@H](O[C@H]4O[C@H](CO)[C@@H](O)[C@H](O)[C@@H]4O[C@H]4O[C@H](CO)[C@@H](O)[C@H](O)[C@@H]4O[C@H]4O[C@H](CO)[C@@H](O)[C@H](O)[C@@H]4O)[C@@H]3O)CC2)nn1)NC=O)C(C)C)C(=O)N[C@H](C(=O)N[C@@H](CCC(N)=O)C(=O)N[C@@H](CCc1cn(C2CCC(OC3O[C@H](CO[C@H]4O[C@H](CO[C@H]5O[C@H](CO)[C@@H](O)[C@H](O)[C@@H]5O[C@H]5O[C@H](CO)[C@@H](O)[C@H](O)[C@@H]5O)[C@@H](O)[C@H](O[C@H]5O[C@H](CO)[C@@H](O)[C@H](O)[C@@H]5O[C@H]5O[C@H](CO)[C@@H](O)[C@H](O)[C@@H]5O)[C@@H]4O)[C@@H](O)[C@H](O[C@H]4O[C@H](CO)[C@@H](O)[C@H](O)[C@@H]4O[C@H]4O[C@H](CO)[C@@H](O)[C@H](O)[C@@H]4O[C@H]4O[C@H](CO)[C@@H](O)[C@H](O)[C@@H]4O)[C@@H]3O)CC2)nn1)C(=O)N[C@@H](CO)C(=O)N[C@@H](CS)C(=O)N[C@@H](CCC(=O)O)C(=O)N[C@@H](CC(C)C)C(=O)N1CCC[C@H]1C(=O)N[C@@H](CCc1cn(C2CCC(OC3O[C@H](CO[C@H]4O[C@H](CO[C@H]5O[C@H](CO)[C@@H](O)[C@H](O)[C@@H]5O[C@H]5O[C@H](CO)[C@@H](O)[C@H](O)[C@@H]5O)[C@@H](O)[C@H](O[C@H]5O[C@H](CO)[C@@H](O)[C@H](O)[C@@H]5O[C@H]5O[C@H](CO)[C@@H](O)[C@H](O)[C@@H]5O)[C@@H]4O)[C@@H](O)[C@H](O[C@H]4O[C@H](CO)[C@@H](O)[C@H](O)[C@@H]4O[C@H]4O[C@H](CO)[C@@H](O)[C@H](O)[C@@H]4O[C@H]4O[C@H](CO)[C@@H](O)[C@H](O)[C@@H]4O)[C@@H]3O)CC2)nn1)C(=O)N[C@H](C(=O)N[C@@H](CCCNC(=N)N)C(=O)N[C@@H](CCCNC(=N)N)C(=O)N[C@@H](CO)C(=O)NCC(=O)N[C@@H](CO)C(=O)NCC(=O)N[C@@H](CO)C(=O)N[C@@H](CC(C)C)C(=O)NCC(=O)N[C@@H](Cc1c[nH]cn1)C(=O)N[C@@H](Cc1c[nH]cn1)C(=O)N[C@@H](Cc1c[nH]cn1)C(=O)N[C@@H](Cc1c[nH]cn1)C(=O)N[C@@H](Cc1c[nH]cn1)C(=O)N[C@@H](Cc1c[nH]cn1)C(=O)N[C@@H](CCCNC(=N)N)C(=O)N[C@@H](CC(=O)O)C(=O)N[C@@H](Cc1ccc(O)cc1)C(=O)N[C@@H](CCCCN)C(=O)N[C@@H](CC(=O)O)C(=O)N[C@@H](CC(=O)O)C(=O)N[C@@H](CC(=O)O)C(=O)N[C@@H](CC(=O)O)C(=O)N[C@@H](CCCCN)C(=O)O)C(C)C)C(C)C (some centres unmarked) [Clone 10F5-Δ11, XVLNDGRRIVQXSCELPXVRRS] | 17% | > 200 nM | – | – | –
2 | XIRXRTPTSRLXSTXRGXTXNXTSXITPRNDXI [Clone 7V8] | – | – | 108 ± 12% | – | –
3 | CC[C@H](C)[C@H](NC(=O)[C@H](CCC(N)=O)NC(=O)[C@H](CCCCN)NC(=O)[C@H](CC(C)C)NC(=O)[C@H](Cc1c[nH]cn1)NC(=O)[C@H](CC(C)C)NC(=O)[C@@H](NC(=O)[C@H](CC(=O)O)NC(=O)[C@H](CCc1cn(C2CCC(OC3O[C@H](CO[C@H]4O[C@H](CO[C@H]5O[C@H](CO)[C@@H](O)[C@H](O)[C@@H]5O[C@H]5O[C@H](CO)[C@@H](O)[C@H](O)[C@@H]5O)[C@@H](O)[C@H](O[C@H]5O[C@H](CO)[C@@H](O)[C@H](O)[C@@H]5O[C@H]5O[C@H](CO)[C@@H](O)[C@H](O)[C@@H]5O)[C@@H]4O)[C@@H](O)[C@H](O[C@H]4O[C@H](CO)[C@@H](O)[C@H](O)[C@@H]4O[C@H]4O[C@H](CO)[C@@H](O)[C@H](O)[C@@H]4O[C@H]4O[C@H](CO)[C@@H](O)[C@H](O)[C@@H]4O)[C@@H]3O)CC2)nn1)NC=O)[C@@H](C)O)C(=O)NCC(=O)NCC(=O)N[C@@H](CCc1cn(C2CCC(OC3O[C@H](CO[C@H]4O[C@H](CO[C@H]5O[C@H](CO)[C@@H](O)[C@H](O)[C@@H]5O[C@H]5O[C@H](CO)[C@@H](O)[C@H](O)[C@@H]5O)[C@@H](O)[C@H](O[C@H]5O[C@H](CO)[C@@H](O)[C@H](O)[C@@H]5O[C@H]5O[C@H](CO)[C@@H](O)[C@H](O)[C@@H]5O)[C@@H]4O)[C@@H](O)[C@H](O[C@H]4O[C@H](CO)[C@@H](O)[C@H](O)[C@@H]4O[C@H]4O[C@H](CO)[C@@H](O)[C@H](O)[C@@H]4O[C@H]4O[C@H](CO)[C@@H](O)[C@H](O)[C@@H]4O)[C@@H]3O)CC2)nn1)C(=O)N1CCC[C@H]1C(=O)N[C@@H](CC(N)=O)C(=O)N[C@@H](CS)C(=O)N[C@H](C(=O)N[C@H](C(=O)N[C@@H](CCC(N)=O)C(=O)N[C@@H](CCC(N)=O)C(=O)N[C@@H](CC(=O)O)C(=O)N[C@H](C(=O)N[C@@H](CCCNC(=N)N)C(=O)N[C@@H](CCc1cn(C2CCC(OC3O[C@H](CO[C@H]4O[C@H](CO[C@H]5O[C@H](CO)[C@@H](O)[C@H](O)[C@@H]5O[C@H]5O[C@H](CO)[C@@H](O)[C@H](O)[C@@H]5O)[C@@H](O)[C@H](O[C@H]5O[C@H](CO)[C@@H](O)[C@H](O)[C@@H]5O[C@H]5O[C@H](CO)[C@@H](O)[C@H](O)[C@@H]5O)[C@@H]4O)[C@@H](O)[C@H](O[C@H]4O[C@H](CO)[C@@H](O)[C@H](O)[C@@H]4O[C@H]4O[C@H](CO)[C@@H](O)[C@H](O)[C@@H]4O[C@H]4O[C@H](CO)[C@@H](O)[C@H](O)[C@@H]4O)[C@@H]3O)CC2)nn1)C(=O)N[C@H](C(=O)N[C@@H](CO)C(=O)N[C@H](C(=O)N1CCC[C@H]1C(=O)N[C@@H](Cc1ccc(O)cc1)C(=O)N[C@H](C(=O)N[C@@H](Cc1ccc(O)cc1)C(=O)N[C@H](C(=O)N[C@@H](Cc1c[nH]c2ccccc12)C(=O)N1CCC[C@H]1C(=O)NCC(=O)N[C@@H](CO)C(=O)NCC(=O)N[C@@H](CO)C(=O)N[C@@H](CC(C)C)C(=O)NCC(=O)N[C@@H](Cc1c[nH]cn1)C(=O)N[C@@H](Cc1c[nH]cn1)C(=O)N[C@@H](Cc1c[nH]cn1)C(=O)N[C@@H](Cc1c[nH]cn1)C(=O)N[C@@H](Cc1c[nH]cn1)C(=O)N[C@@H](Cc1c[nH]cn1)C(=O)N[C@@H](CCCNC(=N)N)C(=O)N[C@@H](CC(=O)O)C(=O)N[C@@H](Cc1ccc(O)cc1)C(=O)N[C@@H](CCCCN)C(=O)N[C@@H](CC(=O)O)C(=O)N[C@@H](CC(=O)O)C(=O)N[C@@H](CC(=O)O)C(=O)N[C@@H](CC(=O)O)C(=O)N[C@@H](CCCCN)C(=O)O)[C@@H](C)O)[C@@H](C)O)[C@@H](C)CC)[C@@H](C)O)C(C)C)[C@@H](C)O)[C@@H](C)CC (some centres unmarked) [Clone 10F3, XDTLHLKQIGGXPNCITQQDVRXTSIPYTYTWP] | – | – | 100 ± 2.7% | tolerated | 3 ± 0.31 nM
4 | For-[X1]PNCITQQDVR[X1]TSIPYTYTWPGSGSLGHHHHHHRDYKDDDDK-OH [Clone 10F3-Δ11, XPNCITQQDVRXTSIPYTYTWP] | 32% | 25 nM | – | – | –
